The values that follow come from patent US20250312365A1, “METHODS FOR INHIBITION OF SQUAMOUS CARCINOMA CELLS USING CERAMIDE MODULATORS” (The Trustees of Indiana University, priority 2024, published 2025).

“Also recorded” adds a separate entry of the source.

Common to all, as to format: cell-based, human
One assay deals with SCC9 cells. As to the kind of experiment: Untargeted metabolomic pathway analysis (LC/MS) in SCC9 cells. As to conditions: 1 μg/ml for 6 h. The text has this:
The plots in FIGS. 16A and 16B display the enriched pathways identified in the analysis, with their corresponding significance levels represented on the x-axis. The significance threshold (p<0.05) is denoted by the dashed line. […] Additionally, the color of the dots represents the enrichment, which indicates the extent to which the metabolites in the pathway were clustered amongst the compounds with the most positive fold-changes (positive enrichments), the most negative fold-changes (negative enrichments), or uniformly distributed across high and low fold-change compounds (enrichment values near 0.0). […] Polar and lipid metabolites were analyzed with hydrophilic interaction chromatography (HILIC/MS) and liquid chromatography (LC/MS), respectively. Mass spectrometry analysis was completed with a mass range of 67-1500 Da with 1 scan/sec and a mass resolution of 120,000 in both positive and negative ionization mode. The MS/MS mass-spectrometry data were acquired in a data-dependent iterative fashion with a 1.3 m/z isolation window. Based upon this metabolomic analysis, phosphoglycerol dihydroceramide (PGDHC) isolated from Porphyromonas gingivalis inhibits metabolomic pathways essential for cell survival in oral squamous cell carcinoma cells (OSCC). […]
SCC9 were exposed to a15:0-i15:0PE (1 μg/ml) for 6 h in vitro. […] The significance threshold (p<0.05) is denoted by the grey dashed line. […] Additionally, the color of the dots represents the enrichment, which indicates the extent to which the metabolites in the pathway were clustered amongst the compounds with the most positive fold-changes (positive enrichments), the most negative fold-changes (negative enrichments), or uniformly distributed across high and low fold-change compounds (enrichment values near 0.0).

Assay [1] concerns ceramide and dihydroceramide in OECM1 cells. The assay can be described thus: Intracellular ceramide and dihydroceramide by mass-spectrometry in OECM1 cells. The text has this: Cellular levels of ceramides and dihydroceramides, and cellular accumulation or increase thereof, can be determined according to known methods, such as mass spectrometry. For example, Scherer et al., J Lipid Res. 2010 July; 51(7): 2001-2011 and Smeden et al., J Lipid Res. 2011 June; 52(6):1211-1221 describe LC/MS/MS methods for determining ceramide levels in cells.
To assess intracellular ceramide levels, the concentration of ceramide and dihydroceramide in OECM1 cells exposed to PGDHC was measured using mass-spectrometry. […] No effect of 0.1 μg/ml of PGDHC on ceramide and dh-ceramide concentrations in OECM1 cells was observed. (FIG. 10C)

The next assay concerns p-STAT3. As to the kind of experiment: Western blot of p-STAT3 in OECM1 cells. As to conditions: time course 15 minutes to 24 hours, compared to sham control. On the procedure:
To determine the effect of PGDHC on cell markers involved in metastasis, the protein levels of p-STAT3, EMT markers, E-cadherin, N-cadherin, and Vimentin in OECM1 cells following in vitro exposure to PGDHC were determined by Western blot assay.

In a further assay the test system is ASAH1. As to the kind of experiment: ASAH1 (acid ceramidase) mRNA expression in OECM1 cells. To be noted: 0.1 or 1 μg/ml of PGDHC. The text has this: Exemplary ceramidase genes, the expression of which can be measured to determine upregulation, include but are not limited to ASAH1, ACER2, and ACER3. A determination of ceramidase gene expression can be made according to methods available to one of skill in the art. For example, Yamada et al., J Cell Mol Med. 2023 May;27(9):1290-1295 and Kyriakou et al., Int. J. Mol. Sci. 2020, 21(5):1607 describes measuring the mRNA levels of ceramidases by RNA extraction and RT-PCR.
To test this hypothesis, it was first determined whether artificially elevated intracellular concentration of ceramide species affect the expression of acid/ASAH1, neutral/ASAH2, and alkaline1-3/ACER1-3 ceramidases in oral squamous cell carcinoma cells using C6-ceramide. Applicant previously reported that C6-ceramide serves as a positive control for PGDHC-mediated inflammation (Kanzaki et al., Biochim Biophys Acta Mol Cell Biol Lipids. 2017 May;1862(5):452-462) and promotes the intracellular accumulation of ceramide in cancer cells. See, e.g., Zhang et al., Front Plant Sci. 2020 Feb. 26:11:145, Zhai et al., Biochem Biophys Res Commun. 2015 December;468(1-2):274-80, Wilhelm et al., Cancers (Basel). 2021 Jan. 13;13(2):270, and Chapman et al., Biochem Pharmacol. 2010 Aug. 1;80(3):308-15.
Next, the effect of PGDHC on ceramidase gene expression was determined. OECM1 and SCC4 cells were exposed to 0.1 or 1 μg/ml of PGDHC. The mRNA levels of ceramidases were then measured following PGDHC exposure. PGDHC inhibited the expression of ASAH1 and ACER2 mRNAs in OECM1 (FIG. 8). […] See, e.g., Vijayan et al., J Adv Res. 2023 Dec. 21:S2090-1232(23)00403-4, Doan et al., Oncotarget. 2017 Nov. 7;8(68):112662-112674., Lai et al., Sci Rep. 2021 May 27;11(1):11221, Liu et al., Cancer Sci. 2020 July;111(7):2259-2274., and Liu et al., Front Genet. 2023 Mar. 1:14:1148437.
To elucidate the effects of C16:0 and dh-C16:0 on oral squamous cell carcinoma, the ability of exogenous C16:0 and dh-C16:0 to modulate proliferation and ceramidase expression in OECM1 cells was determined. […] In contrast, no effect of C16:0 on ASAH1 and ACER2 mRNA expressions.
We evaluated the effect of a15:0-i15:0 phosphoethanolamine phospholipid (FIG. 1D), isolated from the gut bacteria Akkermansia muciniphila on OSCC cells.

Consider phosphoglycerol dihydroceramide [PGDHC], for which, in the assay with SCC9 cells, the “Warburg effect in SCC9 cells” value is “altered”; the “arginine and proline metabolism in SCC9 cells” value was “diminished accumulation; also recorded: inhibits”; the “de novo triacylglycerol biosynthesis in SCC9 cells” value is reported as “diminished accumulation; also recorded: inhibits”; the “folate metabolism in SCC9 cells” value is recorded as “diminished accumulation; also recorded: inhibits”. In addition, in the assay on SCC9 cells, the “glycine and serine metabolism in SCC9 cells” value is reported as “diminished accumulation; also recorded: inhibits”; the “level of ATP in SCC9 cells (relative abundance)” value is “altered”; the “level of glucose in SCC9 cells (relative abundance)” value is given as “altered”; the “mitochondrial electron transport in SCC9 cells” value is “diminished accumulation; also recorded: inhibits”. Also, the “ceramide and dh-ceramide concentrations in OECM1 cells” value in assay [1] (0.1 μg/ml) is recorded as “No effect”. For the same substance, in assay [1] (1 μg/ml, OECM1 cells), the “intracellular concentration of ceramide C20:0, C26:0 and C26:1” value is on record as “significantly elevated”; the “intracellular concentration of dihydroceramide dhC14:0, dhC16:0, dhC18:0, dhC20:0, dhC20:1, dhC22:1, dhC22:0, dhC24:1, dhC24:0, dhC26:1” value is recorded as “significantly elevated”. For the same substance, the “total intracellular concentration of dihydroceramides” value in assay [1] (1 μg/ml, OECM1 cells, compared to ceramides) is listed as “significantly elevated; also recorded: led to the accumulation”. Besides, in assay [1] (OECM1 cells), the “accumulation of C16:0 dihydroceramide (dh-C16:0)” value is on record as “promotes the accumulation”. Also, the “levels of p-STAT3 protein in OECM1 cells” value in the assay on p-STAT3 is “no effect”. In addition, in the assay on ASAH1, the “expression of ASAH1 mRNA in OECM1” value is on record as “inhibits; also recorded: dramatically inhibited”.
